Experimental data: patent US12195424B2, “Antibiotic compounds” (The General Hospital Corporation, priority 2017, dated 2025)
Where two headings read alike, the source gives them in different places.

Assays:
[1] = Cytotoxicity (WST-1) in HepG2 cells; type: cell-based, human; settings: human; HepG2 cells, serum-free media, 24 h; read-out: LC50
Source text: (§1) Human hepatoma, HepG2 (ATCC HB-8065) cells were maintained in DMEM containing 10% fetal bovine serum and antibiotics penicillin—streptomycin (100 units/ml). Normal human primary renal proximal tubular epithelial cells (RPTEC, Lonza catalog #CC-2553, Walkersville, MD, USA) and adult normal human epidermal keratinocytes (NHEK, Lonza catalog #192627) were maintained in renal cell growth media with growth supplements (REGM, Lonza catalog #CC-3190) and in keratinocyte growth media 2 with growth supplements (KGM-2, Lonza catalog #CC-3107), respectively in a humidified 5% CO2 incubator at 37° C.
(§2) For cytotoxicity tests, HepG2, RPTEC, and NHEK were cultured at 70-80% confluence in tissue culture treated 96-well plates in a volume of 100 μl/well corresponding culture media. To test cytotoxicity in the absence of serum, all cells were washed twice with PBS and then once with the serum-free corresponding culture media. The cells were then treated with a range of concentrations of retinoids in the serum-free culture media for 24 h. For the last 4 h of the 24 h period, 50 μl and 10 μl of WST-1 (Roche, Mannheim, Germany) were added in each well of the 24-well and the 96-well plates, respectively. WST-1 reduction was measured at 450 nm. The percent fluorescence relative to that of the no-treatment control was calculated. The assay was done in triplicate.

[2] = test system: human hepatoma HepG2 cells; assay: Cytotoxicity (WST-1) in HepG2 cells; type: cell-based; settings: compared with CD437, in words
Source text: as §1, §2

[3] = Pharmacokinetic analysis; type: in vivo, mice; settings: for half-life: 20 mg/kg
Description: Pharmacokinetic analysis. Pharmacokinetic experiments were conducted by SAI Life Sciences Ltd. (Pune, India) in accordance with guidelines provided by the Committee for the Purpose of Control and Supervision of Experiments on Animals (CPCSEA). The Institutional Animal Ethics Committee (IAEC) approved the experimental protocol. In brief, healthy female CD1 mice (6 weeks old) weighing between 20 to 25 g were procured from Hylasco (Hyderabad, India). Analog 2 was dissolved in a 1:1 solution of Kolliphor EL (Sigma-Aldrich, St Louis, MO, USA) and ethanol and then diluted 1:10 in saline to a final concentration of 2 mg/ml. Groups of mice (n=3) were treated with 20 mg/kg Analog 2 (i.p.). Blood samples were collected as terminal a bleed under light isoflurane anesthesia through a cardiac puncture such that samples were obtained at pre-dose, 0.08, 0.25, 0.5, 1, 2, 4, 8 & 24 h. Immediately after collection, plasma was harvested by centrifugation and stored at −70° C. until analysis. All samples were processed for analysis by protein precipitation using acetonitrile and analyzed with fit-for-purpose LC/MS/MS method (LLOQ=4.90 ng/mL for plasma). Pharmacokinetic parameters were calculated using the non-compartmental analysis tool of Phoenix WinNonlin (Version 6.3). No statistical methods were used to predetermine samples size. The experiments were not randomized, and investigators were not blinded to allocation during experiments and outcome assessment. Outliers were determined based on Grubb's test using GraphPad Prism 7 (GraphPad Software, La Jolla, CA, USA).

[4] = Maximum tolerated dose; type: in vivo; settings: mice
Description: Maximum tolerated dose. Six-week-old female CD1 ICR outbred mice (20-25 g) were obtained from Charles River Laboratories (Wilmington, MA, USA). Analog 2 was dissolved in a 1:1 solution of Kolliphor EL (Sigma-Aldrich, St Louis, MO, USA) and ethanol and then diluted 1:10 in saline to a final concentration of 4 mg/ml. Groups of mice (n=6) were treated with 10, 20, 40, 80 mg/kg Analog 2 i.p. or vancomycin (25 mg/kg) every 12 h for 3 days. Control mice were injected with 400 μl of 10% Kolliphor EL/ethanol in saline i.p. every 12 h for 3 days. Mice were closely monitored until they were euthanized at 72 h from the first infection. After euthanizing mice, blood was collected by cardiac puncture. All samples were stored at 4° C. until for analysis. Serum was analyzed for alanine aminotransferase and urea nitrogen content with commercially available kits, following the manufacturer's protocol (Pointe Scientific, Canton, MI, USA). No statistical methods were used to predetermine samples size. The experiments were not randomized, and investigators were not blinded to allocation during experiments and outcome assessment. This study and all experimental protocols were approved by the Rhode Island Hospital Institutional Animal Care and Use Committee (RIH IACUC) and conducted in accordance with the Animal Welfare Act and National Institutes of Health guidelines for animal care and use. Statistical significance among each group was analyzed by one-way ANOVA with post-hoc Tukey test using PASW Statistics 18 (SPSS Inc. Chicago, IL, USA) and GraphPad Prism 7 (GraphPad Software, La Jolla, CA, USA).

[5] = test system: Cutibacterium (Propionibacterium) acnes; assay: Growth inhibition / MIC against P. acnes; type: cell-based; settings: in words (FIG. 11)
Description: Minimal inhibitory concentration (MIC) assay. The MICs of antibiotics were determined by the standard micro-dilution method recommended by the Clinical and Laboratory Standards Institute. The assay was conducted in triplicate.
More specifically, uptake of SYTOX Green by Cutibacterium (Propionibacterium) acnes cells treated with retinoids CD437 and Analog 2 increased, indicating higher permeability (FIG. 12; individual data points (n=3 biologically independent samples) and means are shown).

[6] = every 12 h for 3 days, Analog 2 10-80 mg/kg i.p., vancomycin 25 mg/kg i.p., P>0.7

OCc1ccc2cc(-c3ccc(O)c(C45CC6CC(CC(C6)C4)C5)c3)ccc2c1 [Analog 2, 2-(adamantan-1-yl)-4-(6-(hydroxymethyl)naphthalen-2-yl)phenol]
CC50 at 24 h [1]: > 32 µg/mL | anticancer activity [2]: significantly reduced | AUC(0-inf) ([3]; female, CD1, mouse, ip, mice, single injection 20 mg/kg i.p., plasma, read-out: AUCinf (area under the curve to infinite)): 16500 ng·h/mL | AUC(0-t) ([3]; female, CD1, mouse, ip, mice, single injection 20 mg/kg i.p., plasma, read-out: AUClast (area under the curve to last time point)): 16400 ng·h/mL | Cmax ([3]; female, CD1, mouse, ip, mice, single injection 20 mg/kg i.p., plasma, read-out: Cmax (maximum concentration observed)): 16100 ng/mL | Tmax ([3]; female, CD1, mouse, ip, mice, single injection 20 mg/kg i.p., plasma, read-out: Tmax (the time taken to reach the maximum concentration)): 0.5 h | half-life ([3]; female, CD1, mouse, plasma, ip, intraperitoneal single dose of 20 mg/kg, as stated in Example 3, read-out: elimination half-life (converted)): 4.5 h | half-life ([3]; female, CD1, mouse, plasma, ip, mice, single injection 20 mg/kg i.p., plasma, read-out: T1/2 (Half-life) (converted)): 4.49 h | maximum plasma concentration ([3]; intraperitoneal single dose of 20 mg/kg, as stated in Example 3): ~10 µg/mL | CL (clearance) ([3]; mice, single injection 20 mg/kg i.p., plasma): 20.16 mL/min/kg | alanine aminotransferase (ALT) vs. control [4, 6]: lack of significant differences | blood urea nitrogen (BUN) vs. control [4, 6]: lack of significant differences | hepatic or renal toxicity ([4]; up to 80 mg/kg i.p. (highest tested dose) every 12 h for 3 days): no detectable | growth inhibition [5]: inhibit the growth
